# Reference: ChEMBL document CHEMBL1201862, “PubChem BioAssay data set” (2004)
#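 Cultured in 96-well plates, cells were exposed to test compound for 48 hours across five concentrations. At the GI50, growth is halved.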 Calls of active or inactive are those of the source. Rule as the data show it: active = GI50 up to about 1.1 µM and inactive = higher.
# Columns and labels:
# Assay in all cases: inhibition of tumour cell growth, NCI panel, 48 h
# COLO 205 = system: COLO 205
# HL-60 = system: HL-60
# OVCAR-3 = system: OVCAR-3
# UO-31 = system: UO-31
# K562 = system: K562
# HOP-92 = system: HOP-92
# SNB-75 = system: SNB-75
# HOP-62 = system: HOP-62
# SN12C = system: SN12C
# MDA-MB-231 = system: MDA-MB-231
# T47D = system: T47D
# HCT-15 = system: HCT-15
# 786-0 = system: 786-0
# SK-MEL-2 = system: SK-MEL-2
# IGROV-1 = system: IGROV-1
# SR = system: SR
# EKVX = system: EKVX
# BT-549 = system: BT-549
# NCI-H460 = system: NCI-H460
# MDA-MB-435 = system: MDA-MB-435
Structure (SMILES),GI50 (COLO 205),GI50 (HL-60),GI50 (OVCAR-3),GI50 (UO-31),GI50 (K562),GI50 (HOP-92),GI50 (SNB-75),GI50 (HOP-62),GI50 (SN12C),GI50 (MDA-MB-231),GI50 (T47D),GI50 (HCT-15),GI50 (786-0),GI50 (SK-MEL-2),GI50 (IGROV-1),GI50 (SR),GI50 (EKVX),GI50 (BT-549),GI50 (NCI-H460),GI50 (MDA-MB-435)
O=C(c1cccs1)N1CCN(C(=O)c2cccs2)C1=S,7.35 µM (inactive),2.23 µM (inactive),2.94 µM (inactive),2.33 µM (inactive),3.05 µM (inactive),7.19 µM (inactive),2.28 µM (inactive),5.04 µM (inactive),2.95 µM (inactive),6.38 µM (inactive),4.15 µM (inactive),3.99 µM,2.75 µM (inactive),11.9 µM (inactive),6.7 µM (inactive),3.43 µM (inactive),13.9 µM (inactive),5.4 µM (inactive),6.75 µM (inactive),2.88 µM (inactive)
CN(C)CCCCN1c2ccccc2Sc2ccc(C(=O)c3ccccc3)cc21,1.64 µM (inactive),1.85 µM (inactive),3.98 µM (inactive),2.6 µM (inactive),1.57 µM (inactive),2.44 µM (inactive),2.34 µM (inactive),3.13 µM (inactive),3.11 µM (inactive),2.11 µM (inactive),3.59 µM (inactive),3.51 µM,1.82 µM (inactive),2.71 µM (inactive),2.9 µM (inactive),3.83 µM (inactive),6.65 µM (inactive),6.01 µM (inactive),2.24 µM (inactive),1.9 µM (inactive)
C=C1C(=O)O[C@H]2C3C(=C(C)CC[C@@H]12)C(=O)[C@@H]1OC31C (stereo not given in full),1.2 µM (inactive),0.23 µM (active),2 µM (inactive),4.89 µM (inactive),0.698 µM (active),2.93 µM (inactive),2.38 µM (inactive),14.8 µM (inactive),1.63 µM (inactive),3.94 µM (inactive),1.81 µM (inactive),1.66 µM,1.86 µM (inactive),4.48 µM (inactive),5.45 µM (inactive),0.622 µM (active),14.4 µM (inactive),1.95 µM (inactive),10.1 µM (inactive),2.72 µM (inactive)
O=C(/C=C/c1ccc(OCc2ccccc2)c(OCc2ccccc2)c1)OCc1ccccc1,> 100 µM (inactive),> 100 µM (inactive),> 100 µM (inactive),> 100 µM (inactive),> 100 µM (inactive),> 100 µM (inactive),> 100 µM (inactive),> 100 µM (inactive),> 100 µM (inactive),> 100 µM (inactive),> 100 µM (inactive),> 100 µM,> 100 µM (inactive),> 100 µM (inactive),> 100 µM (inactive),> 100 µM (inactive),> 100 µM (inactive),> 100 µM (inactive),> 100 µM (inactive),> 100 µM (inactive)
Cc1ccc2c(ccc3[nH]cc(CNc4ccc(NS(C)(=O)=O)cc4)c32)n1,29 µM (inactive),27.4 µM (inactive),19.7 µM (inactive),37.7 µM (inactive),18.7 µM (inactive),26.7 µM (inactive),18.8 µM (inactive),24.2 µM (inactive),27.2 µM (inactive),25.3 µM (inactive),12.3 µM (inactive),38.5 µM,17.8 µM (inactive),18.6 µM (inactive),27.8 µM (inactive),21.8 µM (inactive),35.4 µM (inactive),35.4 µM (inactive),18.9 µM (inactive),16.8 µM (inactive)
CCN(CC)C(=S)SC(=S)N(CC)CC,18.3 µM (inactive),29.5 µM (inactive),37 µM (inactive),30.3 µM (inactive),28 µM (inactive),39.4 µM (inactive),31.3 µM (inactive),53.7 µM (inactive),> 54.3 µM (inactive),32.9 µM (inactive),32.4 µM (inactive),55 µM,23.7 µM (inactive),31.3 µM (inactive),30.5 µM (inactive),0.0482 µM (active),42.6 µM (inactive),27.3 µM (inactive),2.3 µM (inactive),34.1 µM (inactive)
O=C1/C(=C/c2ccccc2S)N=C(c2ccccc2)N1c1nc2c(Cl)cc(Cl)cc2s1,21.7 µM (inactive),16.4 µM (inactive),17.3 µM (inactive),21 µM (inactive),23.5 µM (inactive),19.5 µM (inactive),30.1 µM (inactive),16.6 µM (inactive),22.3 µM (inactive),40.4 µM (inactive),31.7 µM (inactive),31.1 µM,24.3 µM (inactive),24 µM (inactive),20.9 µM (inactive),15.2 µM (inactive),11.6 µM (inactive),26.7 µM (inactive),27.5 µM (inactive),21.8 µM (inactive)
CC(=O)c1ccccc1NS(=O)(=O)c1ccc2nc(C)n(NS(=O)(=O)c3ccccc3C(C)=O)c(=O)c2c1,> 100 µM (inactive),> 100 µM (inactive),> 100 µM (inactive),37.3 µM (inactive),> 100 µM (inactive),> 100 µM (inactive),> 100 µM (inactive),> 100 µM (inactive),> 100 µM (inactive),> 100 µM (inactive),> 100 µM (inactive),> 100 µM,> 100 µM (inactive),> 100 µM (inactive),> 100 µM (inactive),> 100 µM (inactive),> 100 µM (inactive),> 100 µM (inactive),> 100 µM (inactive),> 100 µM (inactive)
O=C(O)C(F)(F)C(F)(F)C(F)(F)C(F)(F)C(=O)O,> 100 µM (inactive),> 100 µM (inactive),> 100 µM (inactive),> 100 µM (inactive),> 100 µM (inactive),> 100 µM (inactive),> 100 µM (inactive),> 100 µM (inactive),> 100 µM (inactive),> 100 µM (inactive),> 100 µM (inactive),> 100 µM,> 100 µM (inactive),> 100 µM (inactive),> 100 µM (inactive),> 100 µM (inactive),> 100 µM (inactive),> 100 µM (inactive),> 100 µM (inactive),> 100 µM (inactive)
O=C(O)c1[nH]c(=O)[nH]c(=O)c1CN1CCCCC1,> 100 µM (inactive),> 100 µM (inactive),> 100 µM (inactive),> 100 µM (inactive),> 100 µM (inactive),> 100 µM (inactive),> 100 µM (inactive),> 100 µM (inactive),> 100 µM (inactive),> 100 µM (inactive),> 100 µM (inactive),> 100 µM,> 100 µM (inactive),> 100 µM (inactive),> 100 µM (inactive),> 100 µM (inactive),> 100 µM (inactive),> 100 µM (inactive),> 100 µM (inactive),> 100 µM (inactive)
O=c1oc2ccccc2cc1-c1ccc([N+](=O)[O-])cc1,> 100 µM (inactive),> 100 µM (inactive),> 100 µM (inactive),> 100 µM (inactive),> 100 µM (inactive),> 100 µM (inactive),> 100 µM (inactive),> 100 µM (inactive),> 100 µM (inactive),> 100 µM (inactive),> 100 µM (inactive),> 100 µM,9.29 µM (inactive),> 100 µM (inactive),> 100 µM (inactive),57.9 µM (inactive),> 100 µM (inactive),16.5 µM (inactive),14.6 µM (inactive),> 100 µM (inactive)
CSc1ccc(/C=C2\N=C(c3ccccc3)N(/N=C3\C(=O)Nc4ccccc43)C2=O)cc1,> 100 µM (inactive),> 100 µM (inactive),83.6 µM (inactive),> 100 µM (inactive),> 100 µM (inactive),> 100 µM (inactive),> 100 µM (inactive),> 100 µM (inactive),> 100 µM (inactive),> 100 µM (inactive),> 100 µM (inactive),> 100 µM,> 100 µM (inactive),> 100 µM (inactive),> 100 µM (inactive),22.6 µM (inactive),38.7 µM (inactive),> 100 µM (inactive),> 100 µM (inactive),> 100 µM (inactive)
Nc1ccn(C2OC(CO)C(O)C2O)c(=O)n1 (stereo not given),139 µM (inactive),0.203 µM (active),429 µM (inactive),6.15 µM (inactive),14.6 µM (inactive),9.55 µM (inactive),308 µM (inactive),0.213 µM (active),2.38 µM (inactive),196 µM (inactive),330 µM (inactive),73.5 µM,0.514 µM (active),457 µM (inactive),313 µM (inactive),0.23 µM (active),267 µM (inactive),286 µM (inactive),0.0885 µM (active),35.4 µM (inactive)
Nc1nc2c(ncn2Cc2ccccc2CO)c(=O)[nH]1,> 100 µM (inactive),> 100 µM (inactive),> 100 µM (inactive),> 100 µM (inactive),> 100 µM (inactive),> 100 µM (inactive),> 100 µM (inactive),> 100 µM (inactive),> 100 µM (inactive),> 100 µM (inactive),> 100 µM (inactive),> 100 µM,> 100 µM (inactive),> 100 µM (inactive),> 100 µM (inactive),> 100 µM (inactive),> 100 µM (inactive),> 100 µM (inactive),> 100 µM (inactive),> 100 µM (inactive)
